The values below come from the supplement of paper PMC8967900.
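Note: ALL cell lines in 384-well plates, five doses spanning 10,000-fold, each plate scaled between vehicle and 100 µmol/L benzalkonium chloride controls, sDSS an adapted area-under-curve metric.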

The first assay concerns JURKAT. Description: selective drug sensitivity score (sDSS, relative to normal bone marrow) (sDSS (score)); higher = more potent and effective on the cell line relative to normal bone marrow cells. To be noted: 72 h.
In the case of `CN(C)Cc1ccc(S(=O)(=O)n2ccc(/C=C/C(=O)NO)c2)cc1` [Resminostat] (top concentration 10000 nM), the “selective drug sensitivity score” value worked out at 1.34.
In the case of `COc1cc(OC)c(/C=C/S(=O)(=O)Cc2ccc(OC)c(NCC(=O)O)c2)c(OC)c1` [Rigosertib] (top concentration 10000 nM), the “selective drug sensitivity score” value is 14.4.
Still for that read-out and setting: for `COc1ccc(CCc2nc3cc(-c4c(C)noc4C)ccc3n2C[C@H](C)N2CCOCC2)cc1Cl` [SGC-CBP30] (top concentration 25000 nM) the value was 2.18; for `CCS(=O)(=O)c1cccc(-c2cc(C(=O)NC3CCN(C)CC3)c(C)c3[nH]c4ncc(C)cc4c23)c1` [TAK-901] (top concentration 1000 nM), 1.86; for `Nc1nc(NC2CC2)cc(-c2cccc(Cl)c2Cl)n1` [TH588] (top concentration 25000 nM), 15.2.
The same measure, in the same setting: for `CC(=O)Nc1ccc(C(=O)Nc2ccccc2N)cc1` [Tacedinaline] (top concentration 1000 nM) the value was 0.68; for `Cn1ncnc1[C@H]1c2n[nH]c(=O)c3cc(F)cc(c23)N[C@@H]1c1ccc(F)cc1` [Talazoparib] (top concentration 1000 nM), -0.22; for `COc1cccc2c1c(O)c(C(=O)N(C)c1ccc(C(F)(F)F)cc1)c(=O)n2C` [Tasquinimod] (top concentration 10000 nM), -0.42.
The same measure, in the same setting: the value for `Nc1nc2[nH]cnc2c(=S)[nH]1` [Thioguanine] (top concentration 10000 nM) was 12.4; that for `CC#CC(=O)N1CC[C@@H](n2c(=O)n(-c3ccc(Oc4ccccc4)cc3)c3c(N)ncnc32)C1` [Tirabrutinib] (top concentration 1000 nM) was 0.
Regarding `CC(C)C[C@@H](C(=O)N[C@H](C(=O)OC1CCCC1)c1ccccc1)[C@H](O)C(=O)NO` [Tosedostat] (top concentration 10000 nM), the “selective drug sensitivity score” value worked out at 2.16.
Still for that read-out and setting: for `CS(=O)(=O)c1ccc(-c2cnc(N)c(C(=O)Nc3ccccc3)n2)cc1` [VE-821] (top concentration 10000 nM) the value was 1.64.
As to `CNC(=O)c1ccccc1Nc1cc(Nc2ccc(N3CCOCC3)cc2OC)ncc1C(F)(F)F` [VS-4718] (top concentration 10000 nM), the “selective drug sensitivity score” value turned out to be 1.1.
Same read-out and setting: the value for `Cc1cccc(-c2[nH]c(CNc3ccccc3F)nc2-c2ccc3ncnn3c2)n1` [Vactosertib (TEW-7197)] (top concentration 2500 nM) was 0.
Still for that read-out and setting: for `O=C(/C=C\n1cnc(-c2cc(C(F)(F)F)cc(C(F)(F)F)c2)n1)NNc1ccccn1` [Verdinexor] (top concentration 1000 nM) the value was 8.74; for `CC[C@@H]1C(=O)N(C)c2cnc(Nc3ccc(C(=O)N[C@H]4CC[C@H](N5CCN(CC6CC6)CC5)CC4)cc3OC)nc2N1C(C)C` [Volasertib] (top concentration 1000 nM), 11.7.
For the molecule `O=C(CCCCCCC(=O)Nc1ccccc1)NO` [Vorinostat] (top concentration 10000 nM), the “selective drug sensitivity score” value stood at 3.6.

The test system of another assay is MHH-CALL-3. The description is as above. To be noted: 72 h.
For `CN(C)Cc1ccc(S(=O)(=O)n2ccc(/C=C/C(=O)NO)c2)cc1` [Resminostat] (top concentration 10000 nM), the “selective drug sensitivity score” value was 11.7.
Regarding `COc1cc(OC)c(/C=C/S(=O)(=O)Cc2ccc(OC)c(NCC(=O)O)c2)c(OC)c1` [Rigosertib] (top concentration 10000 nM), the “selective drug sensitivity score” value stood at 13.4.
Same read-out and setting: for `COc1ccc(CCc2nc3cc(-c4c(C)noc4C)ccc3n2C[C@H](C)N2CCOCC2)cc1Cl` [SGC-CBP30] (top concentration 25000 nM) the value was 9.48.
Regarding `CCS(=O)(=O)c1cccc(-c2cc(C(=O)NC3CCN(C)CC3)c(C)c3[nH]c4ncc(C)cc4c23)c1` [TAK-901] (top concentration 1000 nM), the “selective drug sensitivity score” value was found to be 6.66.
The same measure, in the same setting: the value for `Nc1nc(NC2CC2)cc(-c2cccc(Cl)c2Cl)n1` [TH588] (top concentration 25000 nM) was -0.58; that for `CC(=O)Nc1ccc(C(=O)Nc2ccccc2N)cc1` [Tacedinaline] (top concentration 1000 nM) was 1.58.
The same measure, in the same setting: for `Cn1ncnc1[C@H]1c2n[nH]c(=O)c3cc(F)cc(c23)N[C@@H]1c1ccc(F)cc1` [Talazoparib] (top concentration 1000 nM) the value was 20.3; for `COc1cccc2c1c(O)c(C(=O)N(C)c1ccc(C(F)(F)F)cc1)c(=O)n2C` [Tasquinimod] (top concentration 10000 nM), -0.42.
Still for that read-out and setting: the value for `Nc1nc2[nH]cnc2c(=S)[nH]1` [Thioguanine] (top concentration 10000 nM) was -1.36; that for `CC#CC(=O)N1CC[C@@H](n2c(=O)n(-c3ccc(Oc4ccccc4)cc3)c3c(N)ncnc32)C1` [Tirabrutinib] (top concentration 1000 nM) was 1.7.
`CC(C)C[C@@H](C(=O)N[C@H](C(=O)OC1CCCC1)c1ccccc1)[C@H](O)C(=O)NO` [Tosedostat] (top concentration 10000 nM): the “selective drug sensitivity score” value came out at 15.3.
Still for that read-out and setting: for `CS(=O)(=O)c1ccc(-c2cnc(N)c(C(=O)Nc3ccccc3)n2)cc1` [VE-821] (top concentration 10000 nM) the value was -0.06; for `CNC(=O)c1ccccc1Nc1cc(Nc2ccc(N3CCOCC3)cc2OC)ncc1C(F)(F)F` [VS-4718] (top concentration 10000 nM), -5.
On the same count and under the same terms, for `Cc1cccc(-c2[nH]c(CNc3ccccc3F)nc2-c2ccc3ncnn3c2)n1` [Vactosertib (TEW-7197)] (top concentration 2500 nM) the value was -0.5; for `O=C(/C=C\n1cnc(-c2cc(C(F)(F)F)cc(C(F)(F)F)c2)n1)NNc1ccccn1` [Verdinexor] (top concentration 1000 nM), 20.5; for `CC[C@@H]1C(=O)N(C)c2cnc(Nc3ccc(C(=O)N[C@H]4CC[C@H](N5CCN(CC6CC6)CC5)CC4)cc3OC)nc2N1C(C)C` [Volasertib] (top concentration 1000 nM), 2.9.
Still for that read-out and setting: the value for `O=C(CCCCCCC(=O)Nc1ccccc1)NO` [Vorinostat] (top concentration 10000 nM) was 14.1.

The subject of another assay is CCRF-CEM. The description is as above. To be noted: 72 h.
For `CN(C)Cc1ccc(S(=O)(=O)n2ccc(/C=C/C(=O)NO)c2)cc1` [Resminostat] (top concentration 10000 nM), the “selective drug sensitivity score” value is 3.74.
The same measure, in the same setting: for `COc1cc(OC)c(/C=C/S(=O)(=O)Cc2ccc(OC)c(NCC(=O)O)c2)c(OC)c1` [Rigosertib] (top concentration 10000 nM) the value was 14.4; for `COc1ccc(CCc2nc3cc(-c4c(C)noc4C)ccc3n2C[C@H](C)N2CCOCC2)cc1Cl` [SGC-CBP30] (top concentration 25000 nM), 4.28.
Consider `CCS(=O)(=O)c1cccc(-c2cc(C(=O)NC3CCN(C)CC3)c(C)c3[nH]c4ncc(C)cc4c23)c1` [TAK-901] (top concentration 1000 nM), for which the “selective drug sensitivity score” value was 11.2.
Still for that read-out and setting: for `Nc1nc(NC2CC2)cc(-c2cccc(Cl)c2Cl)n1` [TH588] (top concentration 25000 nM) the value was 7.52; for `CC(=O)Nc1ccc(C(=O)Nc2ccccc2N)cc1` [Tacedinaline] (top concentration 1000 nM), 2.08.
On to `Cn1ncnc1[C@H]1c2n[nH]c(=O)c3cc(F)cc(c23)N[C@@H]1c1ccc(F)cc1` [Talazoparib] (top concentration 1000 nM), for which the “selective drug sensitivity score” value turned out to be 5.98.
On the same count and under the same terms, for `COc1cccc2c1c(O)c(C(=O)N(C)c1ccc(C(F)(F)F)cc1)c(=O)n2C` [Tasquinimod] (top concentration 10000 nM) the value was -0.42.
